The values below come from US10300067B2, “Tetrahydropyridopyrimidine compound or salt thereof” (TAIHO PHARMACEUTICAL CO., LTD., priority 2014, dated 2019).

Common to all, as to assay type: cell-based
The subject of test [1] is Human prostate cancer cells LNCaP. As to the kind of experiment: Androgen-dependent inhibitory activity on proliferation of prostate cancer cells. The note with it: 50% proliferation inhibition concentration, DHT 10 nmol/L, 72 hours, read-out: GI50 value. On the procedure:
Human prostate cancer cells LNCaP (Non-Patent Literature 5) having […] androgen receptor gene were seeded in a clear bottom 96 well microplate (BD) at 4.0×10^3/well with phenol red free RPMI1640 containing 5% DCC-FBS (hereinbelow, the medium is referred to as an evaluation medium), and then cultured overnight. The culture was added with the evaluation medium containing DHT (final concentration of DHT: 10 nmol/L) or the evaluation medium containing the compound of Examples or the compound of Comparative Examples (final concentration of the compound of Examples or the compound of Comparative Examples: 10, 30, 100, 300, 1000, 3000, 10000, or 30000 nmol/L), followed by culture for 72 hours. Then, the number of viable cells was counted. The number of viable cells was measured by using Cell Counting Kit-8 (DOJINDO LABORATORIES).

In the next test the target is androgen receptor (Homo sapiens (Human), UniProt P10275, T878A). As to the kind of experiment: Activity of reducing expression level of androgen receptor (Western blotting of LNCaP cell lysate). The conditions noted are these: 48 hours. On the procedure:
AR positive human prostate cancer cells LNCaP were seeded in a clear bottom 6 well microplate (BD) at 3.5×10^5/well with phenol red free RPMI1640 containing 5% FBS (hereinbelow, the medium is referred to as an evaluation medium), and then cultured overnight. The culture was added with the evaluation medium containing the compound of Examples or the compound of Comparative Examples such that the final concentration of the compound of Examples or the compound of Comparative Examples was 10000 nmol/L, followed by culture for 48 hours. After culture for 48 hours, the medium was removed and the cells were washed with PBS and added with 0.1 mL of Lysis buffer (M-PER added with Protease Inhibitor Cocktail), followed by keeping at 4° C. for 20 minutes. After cell lysis, the cell solution was centrifuged to recover the supernatant as cell lysate. […] The antibody-reacting band (anti AR receptor) was quantified by LAS-3000 (FUJIFILM) using Super Signal West Pico Substrate (Thermo Scientific) as a detection reagent.

Another test addresses human androgen receptor (Homo sapiens (Human), UniProt P10275). As to the kind of experiment: Antagonist activity for AR (pMMTV-luc reporter transcription activity in transfected COS-7 cells, DHT 1 nmol/L). The conditions noted are these: 50% transcription activity inhibition concentration; COS-7 cells with pMMTV-luc and pEX-hAR, DHT 1 nmol/L, 24 hours. On the procedure: Antagonist activity for AR was evaluated according to the following method. COS-7 cells (ATCC) were transfected with pMMTV-luc vector (reporter plasmid having, as an androgen response element, […] long terminal repeat) and pEX-hAR vector (human androgen receptor expression vector: which expresses human AR gene under control of CMV promoter) by using Nucleofector (registered trademark) Kit R (Lonza) as a transfection reagent and Amaxa (Lonza). The COS-7 cells obtained after transfection were seeded in a clear bottom 96 well microplate (BD) at 1.5×10^4/well with phenol red free RPMI1640 containing 10% charcoal-treated fetal bovine serum (hereinbelow, DCC-FBS) (hereinbelow, the medium is referred to as an evaluation medium), and then cultured overnight. […] Then, the transcription activity value was measured. The transcription activity was measured by using Bright-Glo™ Luciferase Assay System (Promega).

The subject of test [2] is AR positive human prostate cancer cells VCaP. As to the kind of experiment: Agonist activity for AR (cell proliferation rate of VCaP cells). The conditions noted are these: 72 hours, 2 to 10000 nmol/L, more than 10% at any concentration = agonist activity for AR. The protocol:
AR positive human prostate cancer cells VCaP (In Vivo 15:163-168, 2001) were seeded in a clear bottom 96 well microplate (BD) at 1.5×10^4/well with phenol red free RPMI1640 containing 5% DCC-FBS (hereinbelow, the medium is referred to as an evaluation medium), and then cultured overnight. The culture was added with the evaluation medium containing the compound of Examples or the compound of Comparative Examples (final concentration of the compound of Examples or the compound of Comparative Examples: 2, 5, 14, 41, 123, 370, 1111, 3333, or 10000 nmol/L), followed by culture for 72 hours. Then, the number of viable cells was counted (test group). As a control, the cells were cultured after being added with the evaluation medium only, and the number of viable cells was counted (control group). The number of viable cells was measured by using CellTiter-Glo™ Luminescent Cell Viability Assay (Promega). From the measured number of viable cells, cell proliferation rate with respect to the compound of Examples or the compound of Comparative Examples was calculated based on the number of viable cells measured in the case of using the evaluation medium only. Cell proliferation rate (%) =(Number of viable cells in test group−Number of viable cells in control group)/(Number of viable cells in control group)×100
By considering an error in the number of viable cells measured in the case of using the evaluation medium only, when the cell proliferation rate was more than 10% at any concentration of the 9 concentrations which had been evaluated, it was determined to have an agonist activity for AR.

Sequence of androgen receptor (P10275 whole entry T878A): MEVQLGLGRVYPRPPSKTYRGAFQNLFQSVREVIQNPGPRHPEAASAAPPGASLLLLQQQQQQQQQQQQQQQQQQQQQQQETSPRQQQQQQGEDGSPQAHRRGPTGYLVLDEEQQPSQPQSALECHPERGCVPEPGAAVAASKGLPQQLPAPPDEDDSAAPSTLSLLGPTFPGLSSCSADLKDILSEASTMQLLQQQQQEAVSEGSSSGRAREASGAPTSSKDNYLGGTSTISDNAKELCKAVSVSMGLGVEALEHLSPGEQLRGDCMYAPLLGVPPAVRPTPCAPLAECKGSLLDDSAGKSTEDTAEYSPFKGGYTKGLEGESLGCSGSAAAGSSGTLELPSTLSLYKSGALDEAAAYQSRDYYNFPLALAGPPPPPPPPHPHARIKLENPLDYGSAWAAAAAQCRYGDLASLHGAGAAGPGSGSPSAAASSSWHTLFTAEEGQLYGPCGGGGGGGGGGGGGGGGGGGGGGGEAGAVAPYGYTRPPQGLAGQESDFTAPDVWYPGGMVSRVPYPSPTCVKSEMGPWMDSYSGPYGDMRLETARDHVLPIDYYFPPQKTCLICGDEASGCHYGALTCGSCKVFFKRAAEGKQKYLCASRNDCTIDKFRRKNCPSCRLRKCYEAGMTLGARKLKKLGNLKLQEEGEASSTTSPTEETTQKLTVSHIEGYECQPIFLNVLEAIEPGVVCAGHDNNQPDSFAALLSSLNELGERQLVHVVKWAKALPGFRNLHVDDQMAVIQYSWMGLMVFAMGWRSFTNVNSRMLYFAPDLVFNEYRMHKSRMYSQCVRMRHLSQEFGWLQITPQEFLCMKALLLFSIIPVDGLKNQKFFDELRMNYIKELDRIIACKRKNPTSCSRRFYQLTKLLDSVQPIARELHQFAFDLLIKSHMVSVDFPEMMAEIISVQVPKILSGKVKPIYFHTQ
Sequence of human androgen receptor (P10275 whole entry): as the sequence (P10275 whole entry T878A) above, with A878T counted along it

Turning to `N#Cc1ccc(N2CCc3c(ncnc3Nc3ccc(C(=O)NCC4(O)CC4)nn3)C2)cc1C(F)(F)F` [Example 30, 6-((7-(4-Cyano-3-(trifluoromethyl)phenyl)-5,6,7,8-tetrahydropyrido[3,4-d]pyrimidin-4-yl)amino)-N-((1-hydroxycyclopropyl)methyl)pyridazine-3-carboxamide], the GI50 in test [1] is 3200 nM. Also, the “10 μM AR expression reducing activity” value on androgen receptor is recorded as “reduced (When the AR expression reducing activity is 50% or more, it is described as “reduced”)”.

On to `Cn1nccc1CCOc1ccc(Nc2ncnc3c2CCN(c2ccc(C#N)c(C(F)(F)F)c2)C3)cc1` [Example 14, 4-(4-((4-(2-(1-Methyl-1H-pyrazol-5-yl)ethoxy)phenyl)amino)-5,6-dihydropyrido[3,4-d]pyrimidin-7(8H)-yl)-2-(trifluoromethyl)benzonitrile], for which the GI50 in test [1] amounted to 1400 nM. At human androgen receptor, this compound registered an IC50 of 300 nM. The “10 μM AR expression reducing activity” value on androgen receptor was “reduced (When the AR expression reducing activity is 50% or more, it is described as “reduced”)”.

Regarding `Cn1nccc1CCNC(=O)c1nnc(Nc2ncnc3c2CCN(c2ccc(C#N)c(C(F)(F)F)c2)C3)s1` [Example 35, 5-((7-(4-Cano-3-(trifluoromethyl)phenyl)-5,6,7,8-tetrahydropyrido[3,4-d]pyrimidin-4-yl)amino)-N-(2-(1-methyl-1H-pyrazol-5-yl)ethyl)-1,3,4-thiadiazol-2-carboxamide], the “Cell proliferation rate (%)” value in test [2] amounted to 0.1%. For the same compound, the GI50 in test [1] turned out to be 1600 nM. For the same compound, it took 190 nM to reach half-maximal inhibition against human androgen receptor (IC50).

`N#Cc1ccc(N2CCc3c(ncnc3Nc3ccc(C(=O)NCC(F)F)nn3)C2)cc1C(F)(F)F` [Example 28, 6-((7-(4-Cyano-3-(trifluoromethyl)phenyl)-5,6,7,8-tetrahydropyrido[3,4-d]pyrimidin-4-yl)amino)-N-(2,2-difluoroethyl)pyridazine-3-carboxamide]: the GI50 in test [1] was found to be 3200 nM. The compound further displayed an IC50 against human androgen receptor of 20 nM. In addition, the “10 μM AR expression reducing activity” value on androgen receptor is listed as “reduced (When the AR expression reducing activity is 50% or more, it is described as “reduced”)”.

For the compound `N#Cc1ccc(N2CCc3c(ncnc3Nc3ccc(S(=O)(=O)NC4CC4)cn3)C2)cc1C(F)(F)F` [Example 19, 6-((7-(4-Cyano-3-(trifluoromethyl)phenyl)-5,6,7,8-tetrahydropyrido[3,4-d]pyrimidin-4-yl)amino)-N-cyclopropylpyridine-3-sulfonamide], the GI50 in test [1] came to 3000 nM. In addition, the IC50 at human androgen receptor is 130 nM.

Turning to `N#Cc1ccc(N2CCc3c(ncnc3Nc3ccc(C(=O)N[C@H]4CC[C@H](O)CC4)nn3)C2)cc1Cl` [Example 29, 6-((7-(3-Chloro-4-cyanophenyl)-5,6,7,8-tetrahydropyrido[3,4-d]pyrimidin-4-yl)amino)-N-((1r,4r)-4-hydroxycyclohexyl)pyridazine-3-carboxamide], in test [1], the GI50 is 200 nM. The same compound had an IC50 at human androgen receptor of 200 nM.

On to `N#Cc1ccc(N2CCc3c(ncnc3Nc3ccc(NC(=O)CC(F)(F)F)cn3)C2)cc1C(F)(F)F` [Example 23, N-(6-((7-(4-Cano-3-(trifluoromethyl)phenyl)-5,6,7,8-tetrahydropyrido[3,4-d]pyrimidin-4-yl)amino)pyridin-3-yl)-3,3,3-trifluoropropanamide], for which the “Cell proliferation rate (%)” value in test [2] worked out at 5.1%. For the same compound, the GI50 in test [1] turned out to be 1500 nM. Besides, at human androgen receptor, 800 nM corresponded to half-maximal inhibition (IC50).

Consider `CC(C)(COc1ncc(Nc2ncnc3c2CCN(c2ccc(C#N)c(C(F)(F)F)c2)C3)cc1F)n1ccnn1` [Example 51, 4-(4-((5-Fluoro-6-(2-methyl-2-(1H-1,2,3-triazol-1-yl)propoxy)pyridin-3-yl)amino)-5,6-dihydropyrido[3,4-d]pyrimidin-7(8H)-yl)-2-(trifluoromethyl)benzonitrile], for which the “Cell proliferation rate (%)” value in test [2] is −5.4%. In addition, at human androgen receptor, the IC50 was determined as 1100 nM. In addition, the “10 μM AR expression reducing activity” value at androgen receptor is “reduced (When the AR expression reducing activity is 50% or more, it is described as “reduced”)”.

For `CC(C)(O)C1CCN(C(=O)c2coc(Nc3ncnc4c3CCN(c3ccc(C#N)c(C(F)(F)F)c3)C4)n2)CC1` [Example 41, 4-(4-((4-(4-(2-Hydroxypropan-2-yl)piperidin-1-carbonyl)oxazol-2-yl)amino)-5,6-dihydropyrido[3,4-d]pyrimidin-7(8H)-yl)-2-(trifluoromethyl)benzonitrile], the GI50 in test [1] is 2400 nM. At human androgen receptor, this compound yielded an IC50 of 1940 nM. In addition, the “10 μM AR expression reducing activity” value at androgen receptor is given as “reduced (When the AR expression reducing activity is 50% or more, it is described as “reduced”)”.

For the compound `CC(C)(O)c1ccc(Nc2ncnc3c2CCN(c2ccc(C#N)c(Br)c2)C3)nc1` [Example 44, 2-Bromo-4-(4-((5-(2-hydroxypropan-2-yl)pyridin-2-yl)amino)-5,6-dihydropyrido[3,4-d]pyrimidin-7(8H)-yl)benzonitrile], in test [2], the “Cell proliferation rate (%)” value came to 5.2%. Also, on human androgen receptor, it took 50 nM to reach half-maximal inhibition (IC50). For the same compound, the “10 μM AR expression reducing activity” value on androgen receptor is “reduced (When the AR expression reducing activity is 50% or more, it is described as “reduced”)”.

Turning to `N#Cc1ccc(N2CCc3c(ncnc3Nc3nc(C(F)(F)F)c(C(=O)NCC(F)(F)F)s3)C2)cc1C(F)(F)F` [Example 26, 2-((7-(4-Cyano-3-(trifluoromethyl)phenyl)-5,6,7,8-tetrahydropyrido[3,4-d]pyrimidin-4-yl)amino)-N-(2,2,2-trifluoroethyl)-4-(trifluoromethyl)thiazol-5-carboxamide], the “Cell proliferation rate (%)” value in test [2] is 5.7%. In addition, on human androgen receptor, the IC50 turned out to be 60 nM. On androgen receptor, the “10 μM AR expression reducing activity” value is listed as “reduced (When the AR expression reducing activity is 50% or more, it is described as “reduced”)”.

For `CC(C)(O)CNC(=O)c1cnc(Nc2ncnc3c2CCN(c2ccc(C#N)c(C(F)(F)F)c2)C3)cn1` [Example 33, 5-((7-(4-Cyano-3-(trifluoromethyl)phenyl)-5,6,7,8-tetrahydropyrido[3,4-d]pyrimidin-4-yl)amino)-N-(2-hydroxy-2-methylpropyl)pyrazine-2-carboxamide], the “Cell proliferation rate (%)” value in test [2] is reported as 4.4%. The GI50 in test [1] was 2100 nM. The same compound had an IC50 at human androgen receptor of 310 nM.

For the compound `N#Cc1ccc(N2CCc3c(ncnc3Nc3ccc(C(=O)NCC(F)F)cn3)C2)cc1C(F)(F)F` [Example 27, 6-((7-(4-Cyano-3-(trifluoromethyl)phenyl)-5,6,7,8-tetrahydropyrido[3,4-d]pyrimidin-4-yl)amino)-N-(2,2-difluoroethyl)nicotinamide], in test [2], the “Cell proliferation rate (%)” value is −0.2%. Besides, the GI50 in test [1] stood at 2800 nM. At human androgen receptor, the IC50 is 90 nM.

As to `CC(O)(CS(=O)(=O)c1ccc(F)cc1)C(=O)Nc1ccc(C#N)c(C(F)(F)F)c1` (centres unmarked) [Comparative Example 1, N-(4-Cyano-3-(trifluoromethyl)phenyl)-3-((4-fluorophenyl)sulfonyl)-2-hydroxy-2-methylpropanamide, reference compound], the “Cell proliferation rate (%)” value in test [2] stood at 39.7%. Also, the GI50 in test [1] was found to be 3500 nM.
